Data reported in patent EP2676954A1, “Heterocyclyl-substituted-phenyl derivatives as vasodilators” (Laboratorios del Dr. Esteve S.A., priority 2012, dated 2013).

Tested on: Male Wistar rats
Assay: Penile erection test (penile erection score) in conscious rats
Type: in vivo
Conditions: after local injection (animal studies)
Protocol: Male Wistar rats aged from 8 to 10 weeks old (250 - 320 g) were used in these studies. Animals were housed in groups of five, provided with food and water ad libitum and kept in controlled laboratory conditions with the temperature maintained at 22 ± 2 °C and light in 12 h cycles (on at 06:00 h and off at 18:00 h). Experiments were carried out in a soundproof and air-regulated experimental room. The number of rats ranged from 5 to 34 per group in each individual experiment.
Drugs used for treatments were: Compound 1, Compound 2, Compound 3 and Alprostadil.
Male Wistar rats received local injections (intrapenis injections) or topical administrations of test substances and penile erection was quantified (penile erection score) from 15 to 30 min after local drug injection and from 5 to 60 min after topical drug administration. The magnitude of penile erection is determined by penile erection score. The Baseline was determined based on vehicle injection. […]
For evaluating the penile erection after both types of administration, a qualitative score method was used, where 0 = no effect, 1 = slight effect, 2 = some effect without exposure of the penis, and 3 = clear effect with exposure of the penis. The reading times for the local injection were 15 and 30 minutes, and for the topical application were 5, 15, 30, and 60 minutes.
Data are expressed as Mean±SEM. […]

Row | Structure (SMILES) | penile erection
1 | Cc1nn(C)c(C)c1-c1ccc(O)c(CCN(C)C)c1 [Compound 1, 2-(2-(Dimethylamino)ethyl)-4-(1,3,5-trimethyl-1H-pyrazol-4-yl)phenol] | cause penile erection in the absence of sexual stimulation
2 | Cc1nn(C)c(C)c1-c1cccc(CCN(C)C)c1 [Compound 2, Dimethyl-{2-[3-(1,3,5-trimethyl-1H-pyrazol-4-yl)-phenyl]-ethyl}-amine] | cause penile erection in the absence of sexual stimulation
